{"source": "patent US11471508B2", "about": "“HMGB1 antagonist treatment of diabetic peripheral neuropathy” (THE FEINSTEIN INSTITUTES FOR MEDICAL RESEARCH, priority 2019, dated 2022)", "key": {"STZ-induced diabetes": {"system": "STZ-induced diabetes", "assay": "STZ-induced diabetes", "assay_type": "in vivo", "details": "repetitive administration, 500 μg/mouse", "experimental": "In Example 21, the effect of selective HMGB1-TLR4/MD-2 inhibition in STZ-induced diabetes was evaluated. Increased levels of HMGB1 have been reported in both diabetic patients and animal models. For example, elevated expression of HMGB1 is found in the retinas of diabetic patients and rat models with retinopathy. ([…]., Upregulation of RAGE and its ligands in proliferative retinal disease, Experimental Eye Research, 2006; 82(5): 807-815; Yu Y., The role of high mobility group box 1 (HMGB-1) in the diabetic retinopathy inflammation and apoptosis, International Journal of Clinical and Experimental Pathology, 2015; 8(6): 6807). […] (Dasu M. […] Based on this literature, tests were conducted on the effects of […] (SEQ ID NO: 1) and […] on STZ-induced diabetes in mice. Mice were administered repetitive administration of […] (500 μg/mouse). […] Repetitive administration of […] was therefore shown to be beneficial in STZ-induced diabetes. […] (*: P<0.05 vs. PBS group. N=6-8 mice per group)."}, "in vivo": {"assay": "in vivo", "details": "male, Sprague-Dawley, rat, iv, 1 mg/kg, AUCtest"}, "[1]": {"system": "PAMPs (LPS, PGN, AGE and Poly I:C)-induced TNF release", "assay": "PAMPs-induced TNF release in human macrophages", "assay_type": "cell-based", "details": "LPS 4 ng/ml, poly I:C 50 μg/ml, PGN 5 μg/ml, S100A12 50 μg/ml; 16 hours", "experimental": "TNF released was measured."}, "[2]": {"assay": "Stability under acidic conditions (pH=2), LC-MS", "assay_type": "physicochemical", "details": "pH=2, two hours"}, "[3]": {"system": "HMGB1-induced TNF release", "assay": "HMGB1-induced TNF release in human primary macrophages (ELISA)", "assay_type": "cell-based", "details": "FIG. 17A", "protocol": "For all of these studies, TNF released was measured using an ELISA."}, "[4]": {"assay": "Degradation in rat plasma and whole blood", "assay_type": "in vitro ADME"}, "[5]": {"system": "liver ischemia and reperfusion injury", "assay": "Warm liver ischemia and reperfusion (I/R) model", "assay_type": "in vivo, mouse", "details": "6 hours after reperfusion, vs vehicle control", "experimental": "[…] (SEQ ID NO: 1) (or vehicle control) was administered intraperitoneally at 500 μg/mouse at the time of I/R surgery and euthanized 6 hours later. Serum levels of ALT and AST were reduced in […] (SEQ ID NO: 1)-treated group vs. vehicle controls. *: P<0.05 vs. I/R group. n=5-7 mice/group. […] (SEQ ID NO: 1)-treated mice as compared to vehicle control (neutrophil infiltration, arrow). n=3-5 mice per group."}, "[6]": {"system": "DAMPs (CIRP, SAA, PEDF, HSP 70, HSP90, H2A)-induced TNF secretion", "assay": "DAMPs-induced TNF secretion in human macrophages", "assay_type": "cell-based", "details": "16 hours"}, "[7]": {"details": "male, Sprague-Dawley, rat, in vivo"}, "[8]": {"assay": "Pharmacokinetics after intravenous administration at 1 mg/kg in male Sprague-Dawley rats (LC-MS)", "details": "Mean"}, "[9]": {"system": "APAP-induced liver injury", "assay": "APAP-induced liver injury model", "assay_type": "in vivo, mouse"}, "[10]": {"assay_type": "in vivo", "details": "single-dose, rats"}, "Oral bioavailability": {"assay": "Oral bioavailability", "details": "in vivo"}, "[11]": {"system": "CCI-induced neuropathic pain", "assay": "Chronic constriction injury of the sciatic nerve (CCI) neuropathic pain model", "assay_type": "in vivo, rat"}, "[12]": {"system": "TNF release stimulated by LPS, PGN, Poly I:C, CpG DNA or S100 A12", "details": "cited from earlier work"}, "[13]": {"system": "liver ischemia and reperfusion injury", "details": "cited from earlier work"}, "[14]": {"system": "HMGB1-induced TNF release", "details": "cited from earlier work"}, "[15]": {"system": "APAP-induced liver injury", "details": "cited from earlier work"}}, "note": "Entries after “also recorded” stand apart in the source; their conditions may differ. Like-named read-outs stand apart in the source and are kept apart here."}
{"smiles": "NC(=O)N(CCC(=O)O)NC(=O)[C@H](CO)NC(=O)[C@H](CO)NC(=O)N(N)Cc1ccccc1", "note": "[K883]", "values": [{"measurement": "insulitis", "setting": "STZ-induced diabetes", "value": "reduces insulitis"}, {"measurement": "weight gain", "setting": "STZ-induced diabetes", "value": "improves weight gain"}, {"measurement": "hyperglycemia", "setting": "STZ-induced diabetes; vs AI5779 or PBS controls", "value": "delays hyperglycemia"}, {"measurement": "AUC", "setting": "in vivo", "value": 3770, "unit": "ng·h/mL"}, {"measurement": "PAMPs-induced TNF release", "setting": "[1]", "value": "failed to inhibit other PAMPS; also recorded: does not inhibit other PAMPs"}, {"measurement": "stability to acid hydrolysis", "setting": "[2]", "value": "resistant to acid hydrolysis"}, {"measurement": "HMGB1-induced TNF secretion", "setting": "[3]", "value": "causes inhibition"}, {"measurement": "degradation after incubating 120 minutes", "setting": "[4]", "value": "not degraded"}, {"measurement": "liver inflammation (H&E, neutrophil infiltration)", "setting": "[5]", "value": "reduced inflammation"}, {"measurement": "TNF secretion induced by other DAMPs", "setting": "[6]", "value": "is not inhibited"}, {"measurement": "Plasma concentration", "setting": "[7]; 0.5 hr", "value": 2500, "unit": "ng/mL"}, {"measurement": "Plasma concentration", "setting": "[7]; 1 hr", "value": 1300, "unit": "ng/mL"}, {"measurement": "Plasma concentration", "setting": "[7]; 2 hr", "value": 130, "unit": "ng/mL"}, {"measurement": "Plasma concentration", "setting": "[7]; 6 hr", "value": 5.10, "unit": "ng/mL"}, {"measurement": "Plasma concentration", "setting": "[7]; 8 hr", "value": 2.01, "unit": "ng/mL"}, {"measurement": "Plasma concentration", "setting": "[8]; 0.50 hr", "value": 2913, "unit": "ng/mL"}, {"measurement": "Plasma concentration", "setting": "[8]; 1.0 hr", "value": 1091, "unit": "ng/mL"}, {"measurement": "Plasma concentration", "setting": "[8]; 2.0 hr", "value": 135, "unit": "ng/mL"}, {"measurement": "Plasma concentration", "setting": "[8]; 4.0 hr", "value": 16.6, "unit": "ng/mL"}, {"measurement": "Plasma concentration", "setting": "[8]; 8.0 hr", "value": 1.52, "unit": "ng/mL"}, {"measurement": "liver necrosis (H&E)", "setting": "[9]; APAP 350 mg/kg, K883 50 μg/mouse IP at 2 and 7 hours, 24 hours post-APAP, vs vehicle", "value": "reduced liver necrosis"}, {"measurement": "mice surviving 2 weeks post-APAP", "setting": "[9]; APAP 400 mg/kg, 50 μg/mouse IP once-a-day for 5 days from 2 hours post-APAP, control group 8", "value": "14 mice out of 15"}, {"measurement": "tolerability", "setting": "[10]", "value": "well-tolerated"}, {"measurement": "oral bioavailability", "setting": "Oral bioavailability", "value": "low"}, {"measurement": "Paw Withdrawal Latency (sec), CCI", "setting": "[11]; 0 hours post treatment, K883 800 μg/rat or 2g7 300 μg/rat IP", "value": "4.1 ± 1.0", "unit": "s"}, {"measurement": "mechanical and thermal hypersensitivity", "setting": "[11]; 800 μg/rat IP once a day for 3 days, Hargreaves, von Frey", "value": "ameliorated both mechanical and thermal hypersensitivity; also recorded: improved CCI-induced thermal and mechanical hypersensitivity"}, {"measurement": "tolerance to repeated treatment", "setting": "[11]; 800 μg/rat IP once daily for three days, 2 weeks", "value": "did not develop tolerance"}, {"measurement": "Paw Withdrawal Latency (sec), CCI", "setting": "[11]; 2 hours post treatment", "value": "4.3 ± 1.2", "unit": "s"}, {"measurement": "Paw Withdrawal Latency (sec), CCI", "setting": "[11]; 6 hours post treatment", "value": "6.0 ± 0.6", "unit": "s"}, {"measurement": "Paw Withdrawal Latency (sec), CCI", "setting": "[11]; 24 hours post treatment", "value": "5.0 ± 0.5", "unit": "s"}, {"measurement": "thermal hypersensitivity", "setting": "[11]; CCI rats", "value": "ameliorated the thermal hypersensitivity"}, {"measurement": "CCI-induced CXCL1 and TNF expression (DRGs)", "setting": "[11]; DRGs", "value": "reduce CCI-induced CSCL1 and TNF expression"}, {"measurement": "CCI-induced CXCL1, TNF and IL-1β expression (spine)", "setting": "[11]; spine", "value": "reduce CCI-induced CSCL1, TNF and IL-1β expression"}]}
{"smiles": "NC(=O)[C@H](CCC(=O)O)NC(=O)[C@H](CO)NC(=O)[C@H](CO)NC(=O)[C@@H](N)Cc1ccccc1", "note": "[P5779]", "values": [{"measurement": "TNF release in macrophages stimulated by LPS, PGN, Poly I:C, CpG DNA or S100 A12", "setting": "[12]", "value": "not suppress TNF release"}, {"measurement": "serum levels of ALT and AST", "setting": "[13]; 500 μg/mouse IP at time of I/R surgery, 6 hours", "value": "reduced"}, {"measurement": "liver inflammation (H&E, neutrophil infiltration)", "setting": "[13]; 6 hours after reperfusion, vs vehicle control", "value": "reduced inflammation"}, {"measurement": "HMGB1-induced TNF release from macrophages", "setting": "[14]", "value": "inhibit HMGB1-induced TNF release from macrophages in a concentration-dependent manner"}, {"measurement": "serum ALT", "setting": "[15]; 500 ugs/mouse", "value": "significant reductions in ALT"}, {"measurement": "liver necrosis (H&E)", "setting": "[15]; APAP 350 mg/kg, P5779 50 or 500 μg/mouse IP at 2 and 7 hours, vs scrambled control peptide", "value": "reduced liver necrosis"}, {"measurement": "percent survival (2 weeks) post-APAP", "setting": "[15]; APAP 400 mg/kg, 500 μg/mouse IP once a day for 5 days", "value": "significantly improved"}]}
